Values joined by “and” are separate entries in the source; they are usually repeats but may differ in a detail not shown here. Equal entries are not always repeated. Where two headings read alike, the source gives them in different places.
How the values were obtained:
[1] = system: SARS-CoV-2 replicon system (pBAC-SARS-CoV-2-Replicon-Luc); assay: microbe, parasite or virus in culture; type: cell-based; conditions: Severe acute respiratory syndrome coronavirus 2, HEK-293T, 60 h
SARS-CoV-2 (B.1) = assay: Anti-SARS-CoV-2 activity in Vero E6 cells (viral yield by qRT-PCR); type: cell-based
[2] = system: SARS-CoV-2 (Beta, B.1.351); assay: microbe, parasite or virus in culture; type: cell-based; conditions: for EC50: read-out: EC50 in Vero E6 cells, SARS-CoV-2 (Beta, B.1.351); for % Inhibition: beta
[3] = system: SARS-CoV-2 (Delta, B.1.617.2); assay: microbe, parasite or virus in culture; type: cell-based; conditions: for % Inhibition: delta
[4] = system: SARS-CoV-2 (B.1) in Huh7 cells; assay: Anti-SARS-CoV-2 activity in Huh7 cells (viral yield by qRT-PCR); type: cell-based; conditions: B.1, MOI 0.05, 48 h
[5] = CCK-8 cell viability assay; type: cell-based, African green monkey; conditions: African green monkey; Vero E6 cells, 48 h, CCK8
Protocol: To investigate the effect of drugs on cell viability, Vero E6 cells were seeded in 96-well plates at a density of 20,000 cells per well and were treated with drugs at indicated concentrations (0, 0.01, 0.1, 1, 5, 10, 50, 75, 100, 200 μM) for 48 hours. Cell viability was tested by using Cell Counting Kit-8 (CCK-8, Bimake, B34302). The figures were plotted from cell viability percentage versus the drug concentrations using GraphPad Prism 6 software.
Fig. S4. Cytotoxicity assay of compounds in Vero E6 cells.
Vero E6 cells were plated in 96-well plates and treated with increasing concentrations
of each indicated compound, ranging from 0 to 200 μM, for 48 hours. Cell viability was
tested using Cell Counting Kit-8 (CCK-8). Data are presented as mean ± SD.

SARS-CoV-2 (strain B.1) = assay: SARS-CoV-2 infection in Ad5-hACE2 mice; type: in vivo, Ad5-hACE2 BALB/c mice

## CCCC(=O)OC[C@H]1O[C@@](C#N)(c2ccc3c(N)ncnn23)[C@H](O)[C@@H]1O [ATV009]
[1]; read-out: EC50 (Confidence 95%), replicon
  EC50: 217 nM
[1]; read-out: EC90 (Confidence 95%), replicon
  EC90: 313 nM
SARS-CoV-2 (B.1); 1 μM, replicates, sheet Fig.S3
  % Inhibition: 55.195%
SARS-CoV-2 (B.1); 2 μM, replicates, sheet Fig.S3
  % Inhibition: 75.409%
SARS-CoV-2 (B.1); 5 μM, replicates, sheet Fig.S3
  % Inhibition: 88.59%
SARS-CoV-2 (B.1); 10 μM, replicates, sheet Fig.S3
  % Inhibition: 90.9393%
SARS-CoV-2 (B.1); B.1, 2 uM, Vero E6, replicates, 2 µM
  % Inhibition: 99.9224%
SARS-CoV-2 (B.1); B.1, 5 uM, Vero E6, replicates, 5 µM
  % Inhibition: 99.9224%
SARS-CoV-2 (B.1); B.1, 10 uM, Vero E6, replicates, 10 µM
  % Inhibition: 99.9809%
SARS-CoV-2 (B.1); B.1, 50 uM, Vero E6, replicates, 50 µM
  % Inhibition: 99.9896%
SARS-CoV-2 (B.1); Severe acute respiratory syndrome coronavirus 2, Vero C1008, 0.1 μM, replicates, sheet Fig.S3
  inhibition at 0.1 µM: 0%
SARS-CoV-2 (B.1); Severe acute respiratory syndrome coronavirus 2, Vero C1008, 0.5 μM, replicates, sheet Fig.S3
  inhibition at 0.5 µM: 0%
SARS-CoV-2 (B.1); Severe acute respiratory syndrome coronavirus 2, Vero C1008, 1 μM, replicates, sheet Fig.S3
  inhibition at 1 µM: 63.5%
SARS-CoV-2 (B.1); Severe acute respiratory syndrome coronavirus 2, Vero C1008, 2 μM, replicates, sheet Fig.S3
  inhibition at 2 µM: 75.7%
SARS-CoV-2 (B.1); Severe acute respiratory syndrome coronavirus 2, Vero C1008, 5 μM, replicates, sheet Fig.S3
  inhibition at 5 µM: 90.9%
SARS-CoV-2 (B.1); Severe acute respiratory syndrome coronavirus 2, Vero C1008, 10 μM, replicates, sheet Fig.S3
  inhibition at 10 µM: 93.2%
SARS-CoV-2 (B.1); Severe acute respiratory syndrome coronavirus 2, Vero C1008, B.1, 0.01 uM, Vero E6, replicates
  inhibition at 0.01 µM: 0%
SARS-CoV-2 (B.1); Severe acute respiratory syndrome coronavirus 2, Vero C1008, B.1, 0.1 uM, Vero E6, replicates
  inhibition at 0.1 µM: 0%
SARS-CoV-2 (B.1); Severe acute respiratory syndrome coronavirus 2, Vero C1008, B.1, 0.25 uM, Vero E6, replicates
  inhibition at 0.25 µM: 0%
SARS-CoV-2 (B.1); Severe acute respiratory syndrome coronavirus 2, Vero C1008, B.1, 0.5 uM, Vero E6, replicates
  inhibition at 0.5 µM: 0%
SARS-CoV-2 (B.1); Severe acute respiratory syndrome coronavirus 2, Vero C1008, B.1, 1 uM, Vero E6, replicates
  inhibition at 1 µM: 0%
SARS-CoV-2 (B.1); Severe acute respiratory syndrome coronavirus 2, Vero C1008, B.1, 2 uM, Vero E6, replicates
  inhibition at 2 µM: 99.8%
SARS-CoV-2 (B.1); Severe acute respiratory syndrome coronavirus 2, Vero C1008, B.1, 5 uM, Vero E6, replicates
  inhibition at 5 µM: 99.8%
SARS-CoV-2 (B.1); Severe acute respiratory syndrome coronavirus 2, Vero C1008, B.1, 10 uM, Vero E6, replicates
  inhibition at 10 µM: 99.9%
SARS-CoV-2 (B.1); Severe acute respiratory syndrome coronavirus 2, Vero C1008, B.1, 50 uM, Vero E6, replicates
  inhibition at 50 µM: 99.9%
SARS-CoV-2 (B.1); Severe acute respiratory syndrome coronavirus 2, Vero C1008, read-out: EC90 (Confidence 95%)
  EC90: 1530 nM
SARS-CoV-2 (B.1); Severe acute respiratory syndrome coronavirus 2, Vero C1008, MOI 0.05, 48 h
  EC50: 1330 nM
[2]; Severe acute respiratory syndrome coronavirus 2, Vero C1008, 48 h
  EC50: 1380 nM
[2]; Severe acute respiratory syndrome coronavirus 2, Vero C1008, beta, 0.01 uM, Vero E6, replicates
  inhibition at 0.01 µM: 0%
[2]; Severe acute respiratory syndrome coronavirus 2, Vero C1008, beta, 0.1 uM, Vero E6, replicates
  inhibition at 0.1 µM: 0%
[2]; Severe acute respiratory syndrome coronavirus 2, Vero C1008, beta, 0.25 uM, Vero E6, replicates
  inhibition at 0.25 µM: 0%
[2]; Severe acute respiratory syndrome coronavirus 2, Vero C1008, beta, 0.5 uM, Vero E6, replicates
  inhibition at 0.5 µM: 0%
[2]; Severe acute respiratory syndrome coronavirus 2, Vero C1008, beta, 1 uM, Vero E6, replicates
  inhibition at 1 µM: 0%
[2]; Severe acute respiratory syndrome coronavirus 2, Vero C1008, beta, 2 uM, Vero E6, replicates
  inhibition at 2 µM: 97%
[2]; Severe acute respiratory syndrome coronavirus 2, Vero C1008, beta, 5 uM, Vero E6, replicates
  inhibition at 5 µM: 99.7%
[2]; Severe acute respiratory syndrome coronavirus 2, Vero C1008, beta, 10 uM, Vero E6, replicates
  inhibition at 10 µM: 99.9%
[2]; Severe acute respiratory syndrome coronavirus 2, Vero C1008, beta, 50 uM, Vero E6, replicates
  inhibition at 50 µM: 99.9%
[2]; Severe acute respiratory syndrome coronavirus 2, Vero C1008, read-out: EC90 (Confidence 95%), Vero-E6, Beta B.1.351
  EC90: 1780 nM
[2]; 2 uM, Vero E6, replicates
  % Inhibition: 97.0202%
[2]; 5 uM, Vero E6, replicates
  % Inhibition: 99.5977%
[2]; 10 uM, Vero E6, replicates
  % Inhibition: 99.9341%
[2]; 50 uM, Vero E6, replicates
  % Inhibition: 99.9498%
[2]
  EC50: 1480 nM
[3]; Severe acute respiratory syndrome coronavirus 2, Vero C1008, 48 h, read-out: EC50 in Vero E6 cells, SARS-CoV-2 (Delta, B.1.617.2)
  EC50: 492 nM
[3]; Severe acute respiratory syndrome coronavirus 2, Vero C1008, delta, 0.01 uM, Vero E6, replicates
  inhibition at 0.01 µM: 0%
[3]; Severe acute respiratory syndrome coronavirus 2, Vero C1008, delta, 0.1 uM, Vero E6, replicates
  inhibition at 0.1 µM: 0%
[3]; Severe acute respiratory syndrome coronavirus 2, Vero C1008, delta, 0.25 uM, Vero E6, replicates
  inhibition at 0.25 µM: 0%
[3]; Severe acute respiratory syndrome coronavirus 2, Vero C1008, delta, 0.5 uM, Vero E6, replicates
  inhibition at 0.5 µM: 57.8%
[3]; Severe acute respiratory syndrome coronavirus 2, Vero C1008, delta, 1 uM, Vero E6, replicates
  inhibition at 1 µM: 94%
[3]; Severe acute respiratory syndrome coronavirus 2, Vero C1008, delta, 2 uM, Vero E6, replicates
  inhibition at 2 µM: 95.8%
[3]; Severe acute respiratory syndrome coronavirus 2, Vero C1008, delta, 5 uM, Vero E6, replicates
  inhibition at 5 µM: 91.8%
[3]; Severe acute respiratory syndrome coronavirus 2, Vero C1008, delta, 10 uM, Vero E6, replicates
  inhibition at 10 µM: 99.7%
[3]; Severe acute respiratory syndrome coronavirus 2, Vero C1008, delta, 50 uM, Vero E6, replicates
  inhibition at 50 µM: 99.9%
[3]; Severe acute respiratory syndrome coronavirus 2, Vero C1008, read-out: EC90 (Confidence 95%), Vero-E6, Delta B.1.617.2
  EC90: 678 nM
[3]; 0.5 uM, Vero E6, replicates
  % Inhibition: 47.7229%
[3]; 1 uM, Vero E6, replicates
  % Inhibition: 93.0132%
[3]; 2 uM, Vero E6, replicates
  % Inhibition: 93.5943%
[3]; 5 uM, Vero E6, replicates
  % Inhibition: 86.9079%
[3]; 10 uM, Vero E6, replicates
  % Inhibition: 98.6486%
[3]; 50 uM, Vero E6, replicates
  % Inhibition: 99.5907%
[4]; Severe acute respiratory syndrome coronavirus 2, Huh-7, read-out: EC50 (Confidence 95%) in Huh7 cells
  EC50: 1040 nM
[4]; Severe acute respiratory syndrome coronavirus 2, Huh-7, read-out: EC90 (Confidence 95%) in Huh7 cells
  EC90: 1310 nM
[5]
  CC50 at 48 h: > 50000 nM

## CC(C)C(=O)OC[C@H]1O[C@@H](n2ccc(NO)nc2=O)[C@H](O)[C@@H]1O [EIDD-2801, molnupiravir, reference compound]
SARS-CoV-2 (strain B.1); 500 mg/kg orally once daily, 2 dpi, FFA, individual mice
  Lung viral titer, Log10 (FFU/g): 3.468 Log10 (FFU/g) and 2.623 Log10 (FFU/g) and 3.1 Log10 (FFU/g)
SARS-CoV-2 (strain B.1); ATV006 250 mg/kg, EIDD-2801 500 mg/kg, orally once daily
  viral load and pathological damage of the lung: reduce the viral load and pathological damage of the lung

Reference: PMC9161374 (Science Translational Medicine, 2022)
